In test [1] the test system is HCV genotype 1a (H77 strain) replicon in HUH-7 cells. The experiment in a line: HCV replicon luciferase reporter assay, genotype 1a. The format is cell-based. The following applies: Hepatitis C virus, Huh-7, 72 h, HCV genotype 1a replicon luciferase, 3 days incubation, read-out: LE_1a (EC50, range). The essentials:
(§1)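 Replicon inhibition for both genotypes was measured as Renilla luciferase signal (EnduRen, 7.5 μM final, 2 h) after 3-day, 37° C exposure of replicon-bearing HUH-7 cells in 4% FCS DMEM, 0.5% DMSO. The 1b construct carries S1179I; the 1a H77 construct carries P1496L and S2204I. Twenty-point, 3-fold dilutions were fitted four-parametrically for EC50, and CC50 was taken from multiplexed Cell Titer-Blue.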
Background: In antiviral work, replicon cells carry a viral genome segment that copies itself.

Test [2] has as its system HCV genotype 1b (Con1) replicon in HUH-7 cells. The experiment in a line: HCV replicon luciferase reporter assay, genotype 1b. The format is cell-based. The following applies: Hepatitis C virus, Huh-7, 72 h, HCV genotype 1b replicon luciferase, 3 days incubation, read-out: LE_1b (EC50, range). An outline of the steps:
as §1

SMILES strings stand for the structures.

The source of these data is US9499550B2 (BRISTOL-MYERS SQUIBB COMPANY, priority 2012, dated 2016).

As to `CC[C@@H]1C[C@H](C)CC/C=C\[C@@H]2C[C@@]2(C(=O)NS(=O)(=O)C2(CF)CC2)NC(=O)[C@@H]2C[C@@H](Oc3nccc4c5c(ccc34)OCCO5)CN2C(=O)[C@H]1NC(=O)OC(C)(C)C(C)(F)F` [Compound 5461, 3,3-difluoro-2-methylbutan-2-yl((2R,6S,7R,9R,13aS,14aR,16aS,Z)-2-((2,3-dihydro-[1,4]dioxino[2,3-f]isoquinolin-7-yl)oxy)-7-ethyl-14a-(((1-(fluoromethyl)cyclopropyl)sulfonyl)carbamoyl)-9-methyl-5,16-dioxo-1,2,3,5,6,7,8,9,10,11,13a,14,14a,15,16,16a-hexadecahydrocyclopropa[e]pyrrolo[1,2-a][1,4]diazacyclopentadecin-6-yl)carbamate], the EC50 in test [1] and in test [2] was 1.01 to 5 nM throughout.

Regarding `CC[C@@H]1C[C@H](C)CC/C=C\[C@@H]2C[C@@]2(C(=O)NS(=O)(=O)C2(CF)CC2)NC(=O)[C@@H]2C[C@@H](Oc3nccc4c5c(ccc34)N(C)CCO5)CN2C(=O)[C@H]1NC(=O)OC(C)(C)C(C)(F)F` [Compound 5463, 3,3-difluoro-2-methylbutan-2-yl((2R,6S,7R,9R,13aS,14aR,16aS,Z)-7-ethyl-14a-(((1-(fluoromethyl)cyclopropyl)sulfonyl)carbamoyl)-9-methyl-2-((4-methyl-3,4-dihydro-2H-[1,4]oxazino[2,3-f]isoquinolin-7-yl)oxy)-5,16-dioxo-1,2,3,5,6,7,8,9,10,11,13a,14,14a,15,16,16a-hexadecahydrocyclopropa[e]pyrrolo[1,2-a][1,4]diazacyclopentadecin-6-yl)carbamate], the EC50 in test [1] and in test [2] was 5.01 to 35 nM throughout.

On to `CC[C@@H]1C[C@H](C)CC/C=C\[C@@H]2C[C@@]2(C(=O)NS(=O)(=O)C2(CF)CC2)NC(=O)[C@@H]2C[C@@H](Oc3nccc4c5c(ccc34)N(C)CCO5)CN2C(=O)[C@H]1NC(=O)OC(C)(C)C(F)(F)F` [Compound 5465, 1,1,1-trifluoro-2-methylpropan-2-yl((2R,6S,7R,9R,13aS,14aR,16aS,Z)-7-ethyl-14a-(((1-(fluoromethyl)cyclopropyl)sulfonyl)carbamoyl)-9-methyl-2-((4-methyl-3,4-dihydro-2H-[1,4]oxazino[2,3-f]isoquinolin-7-yl)oxy)-5,16-dioxo-1,2,3,5,6,7,8,9,10,11,13a,14,14a,15,16,16a-hexadecahydrocyclopropa[e]pyrrolo[1,2-a][1,4]diazacyclopentadecin-6-yl)carbamate], for which the EC50 in test [1] and in test [2] was 1.01 to 5 nM in each case.

For `[2H]C([2H])([2H])C(OC(=O)N[C@@H]1C(=O)N2C[C@H](Oc3ncc(OC)c4ccc(F)cc34)C[C@H]2C(=O)N[C@]2(C(=O)NS(=O)(=O)C3CC3)C[C@H]2/C=C\CC[C@@H](C)C[C@H]1CC)(C([2H])([2H])[2H])C(F)(F)F` [Compound 5467], the values for the EC50 in test [1] and in test [2] were 1.01 to 5 nM and 0.1 to 0.5 nM, respectively.

Consider `CC[C@@H]1C[C@H](C)CC/C=C\[C@@H]2C[C@@]2(C(=O)NS(=O)(=O)C2CC2)NC(=O)[C@@H]2C[C@@H](Oc3ncc(OC)c4ccc(F)cc34)CN2C(=O)[C@H]1NC(=O)OC(C)(C)C(C)(F)F` [Compound 5469, 3,3-difluoro-2-methylbutan-2-yl((2R,6S,7R,9R,13aS,14aR,16aS,Z)-14a-((cyclopropylsulfonyl)carbamoyl)-7-ethyl-2-((7-fluoro-4-methoxyisoquinolin-1-yl)oxy)-9-methyl-5,16-dioxo-1,2,3,5,6,7,8,9,10,11,13a,14,14a,15,16,16a-hexadecahydrocyclopropa[e]pyrrolo[1,2-a][1,4]diazacyclopentadecin-6-yl)carbamate], for which the EC50 was 1.01 to 5 nM in test [1] and 0.1 to 0.5 nM in test [2].

Turning to `[2H]C([2H])([2H])C(OC(=O)N[C@@H]1C(=O)N2C[C@H](Oc3nccc4cc(OC)c(F)cc34)C[C@H]2C(=O)N[C@]2(C(=O)NS(=O)(=O)C3CC3)C[C@H]2/C=C\CC[C@@H](C)C[C@H]1CC)(C([2H])([2H])[2H])C(F)(F)F` [Compound 5471], the EC50 in test [1] lay within 1.01 to 5 nM; in test [2] it was 0.1 to 0.5 nM.

As a reminder, the EC50 is the midpoint of the concentration-response curve.
